{"source": "patent US20260103721A1", "about": "“GENES CONTROLLING BARRIER FORMATION IN ROOTS” (The Regents of the University of California, priority 2022, published 2026)", "assay_type_in_all_cases": "in vivo, Solanum lycopersicum", "key": {"tomato root": {"system": "tomato root", "experiment": "Root growth after 24 h piperonylic acid treatment", "conditions": "200 μM PA, 4-day-old plants, newly grown root zone after transfer", "protocol": "FIG. 7A-B (also referred to as Supplemental FIG. 2 in technical section). […] A. Schematic representation of the experimental design to test the PA. 4-day-old plants after germination were transferred to MS media+1% sucrose with and without 200 μM of PA. After 24 hours, root growth was measured for the part of the root that grew after transferring. Orange horizontal bar=newly grown root after transferring. B. Root growth after 24H in control and PA treatment for the newly root zone after transferring (statistical significance test determined by ANOVA p-value 0.05).\n(§1) Seeds of M82 were grown in 1% MS+1% sucrose. Four days after germination, plants were transferred to new MS square plates with/without 200 μM of piperonylic acid (Sigma P49805-5G) and 200 μM piperonylic acid plus 10 mM monolignols (Sigma Aldrich 223735-100MG,404586-100MG) for 24 hours in the dark, with DMSO as the solvent. Three cm segments from the root tip including the root meristem were exposed to 15 μg/mL PI (P4170; Sigma) in the dark at 30° C. for 1 h. The roots were washed in water and one cm segments from the root tip were embedded in 3% agarose and made sections of 150-200 μM using a vibratome (Leica VT1000 S). Confocal Laser Scanning microscopy was performed on a Zeiss LSM700 confocal with the 20× objective, at 405 nm excitation and 600-650 nm detection."}, "[1]": {"system": "root lignin biosynthesis within the endodermis and exodermis", "experiment": "Root lignin deposition (basic fuchsin staining) after PA treatment", "conditions": "200 μM PA, 24 hours", "protocol": "For root sections stained with basic fuchsin (Fisher scientific Cat no 632-99-5) and calcofluor white (PhytoTechnology laboratories Cat no 4404-43-7), 1 cm segments from the root tip were embedded in 3% agarose and were sectioned at 150-200 μM using a vibratome (Leica VT1000 S). The sections were stained in Clearsee buffer (Ursache et al. 2018) with basic fuchsin for 30 minutes then washed two times. In some cases, the sections were stained with calcofluor after basic fuchsin for 30 minutes and washed two times. Confocal Laser Scanning microscopy was performed on a Zeiss LSM700 confocal with the 20× objective, basic fuchsin: 550-561 nm excitation and 570-650 nm detection. Root samples were mounted in ClearSee (Ursache et al., 2018) and scanned and imaged on a Zeiss Observer Z1 with the 20× or 40× objective, basic fuchsin: 550-561 nm excitation and 570-650 nm detection and calcofluor white: 405 nm excitation and 425-475 nm detection.\nSeeds of M82 were grown in 1% MS+1% sucrose. Four days after germination, plants were transferred to new MS square plates with/without 200 μM of piperonylic acid (Sigma P49805-5G) and 200 μM piperonylic acid plus 10 mM monolignols (Sigma Aldrich 223735-100MG,404586-100MG) for 24 hours in the dark, with DMSO as the solvent. […]"}, "[2]": {"system": "exodermal lignin cap (apoplastic barrier) of tomato root", "experiment": "Apoplastic tracer assay with propidium iodide (PI)", "conditions": "200 μM PA 24 hours, then PI 30 minutes", "protocol": "as §1, with “Three cm segments from the root tip including the root meristem were exposed to 15 μg/mL PI (P4170; Sigma) in the dark at 30° C. for 1 h.” left out"}}, "data": [{"smiles": "O=C(O)c1ccc2c(c1)OCO2", "note": "[PA, Piperonylic acid]", "values": [{"measurement": "root growth", "setting": "tomato root", "value": "does not interfere with root growth"}, {"measurement": "root growth", "setting": "tomato root; listed as Piperonylic acid", "value": "does not affect root growth"}, {"measurement": "root lignin biosynthesis within the endodermis and exodermis", "setting": "[1]", "value": "does disrupt root lignin biosynthesis"}, {"measurement": "PI penetration into cortex cells", "setting": "[2]", "value": "Pt was observed after exposure within cortex cells"}, {"measurement": "PI signal in the exodermal lignin cap (PI blockage)", "setting": "[2]; control versus PA-treated", "value": "more intense in control relative to PA-treated plants"}]}]}
